Article PMC11433764, “A Novel Compound from the Phenylsulfonylpiperazine Class: Evaluation of In Vitro Activity on Luminal Breast Cancer Cells” (Molecules, 2024)
Like-named read-outs stand apart in the source and are kept apart here.

Legend:
Format in all cases: cell-based
MCF-10A = assay: MTT cell viability, non-tumor cell line MCF-10A; conditions: 48 h; for IC50: Homo sapiens, MCF-10A; for Cytotoxicity to the MCF-10A cell line (in words): up to 160 μM
Protocol: (§1) Four different breast cells lines were used in this study: MCF-10A (non-tumorigenic), MCF7 (ER+ BC), MDA-MB453 (HER2+ BC) and MDA-MB231 (TNBC). All lineages were obtained from the American Type Culture Collection (ATCC; Manassas, VA, USA) and maintained at a temperature of 37 °C according to the supplier’s recommendations. Only MDA-MB231 cells were not kept in an atmosphere of 5% CO2. MCF-10A was grown in Dulbecco’s Modified Eagle’s Medium (DMEM F12, Gibco, ThermoFisher Scientific, Waltham, MA, USA) supplemented with 20 ng/mL epidermal growth factor (Gibco, ThermoFisher Scientific, Waltham, MA, USA), 0.5 μg/mL hydrocortisone (Sigma-Aldrich, Sigma-Aldrich, St. Louis, MO, USA) and 10 μg/mL insulin (Gibco, ThermoFisher Scientific, Waltham, MA, USA). MCF7 was cultivated in Roswell Park Memorial Institute Medium (RPMI-1640, Gibco, ThermoFisher Scientific, Waltham, MA, USA), MDA-MB453 in IMDM and MDA-MB231 in Leibovitz’s medium (L-15, Gibco, ThermoFisher Scientific, Waltham, MA, USA). All media were supplemented with 10% fetal bovine serum (FBS, Gibco, ThermoFisher Scientific, Waltham, MA, USA) and 50 µg/mL of gentamicin (Cultilab, Campinas, SP, Brazil). The cells were confirmed to be free of mycoplasma and passaged using a 0.25% trypsin-EDTA solution when confluency reached 80–90%.
(§2) Cell viability was determined by spectrophotometric quantification of MTT (3-[4,5-dimethyl-thiazol-2-yl]-2,5-diphenyltetrazolium bromide—Invitrogen. Waltham, MA, USA) reduction to formazan crystals. Cells were seeded at the density of 1 × 10^4 cells/well (MCF-10A, MDA-MB453), 1.5 × 10^4 cells/well (MDA-MB231) and 3 × 10^3 cells/well (MCF7) in 96-well culture dishes and incubated with different concentrations of the compounds (1.25, 2.5, 5, 10, 20, 40, 80 and 160 µM) for 48 h. The medium was than replaced by MTT solution (0.5 mg/mL) and plates were kept at 37 °C for 4 h. After the aspiration of the media, the formazan crystals were diluted with 100 μL of dimethyl-sulfoxide (DMSO)/well and the absorbance at 570 nm was measured using a spectrophotometer (Thermo Plate TP-Reader, Waltham, MA, USA). Cytotoxicity was calculated using the following formula: Cytotoxicity (%) = [absorbance of cells treated with the compounds/absorbance of cells treated with DMSO) × 100]. The IC50 was determined for each compound and was defined as the concentration required to inhibit 50% of cell growth, compared to the control sample (cells treated with DMSO 0.05%).
(§3) Data were presented as the mean ± standard deviation (SD) and analyzed using GraphPad Prism 9.0 software (GraphPad Software Inc., La Jolla, CA, USA). All data were assayed in triplicate. Statistical analysis was performed using one-way ANOVA, Tukey´s HSD post hoc test and Student’s t-test. The IC50 was calculated using non-linear regression and the selectivity index (SI) was calculated by the ratio between the IC50 values corresponding to the non-tumor cell lineage (MCF-10A) and the IC50 values corresponding to the BC cell lines. Statistical significance was accepted at p values < 0.05.

MCF7 = assay: MTT cell viability, MCF7; design: key to SI MCF7: NS: the compound was more active in the non-tumor cell line; conditions: for IC50: Homo sapiens, MCF7, 48 h, MTT; for SI MCF7: IC50 MCF10A / IC50 MCF7
Protocol: as §1, §2, §3

MDA-MB-231 = assay: MTT cell viability, MDA-MB-231; design: key to SI MDA-MB-231: NS: the compound was more active in the non-tumor cell line; conditions: for IC50: Homo sapiens, MDA-MB-231, 48 h, MTT; for SI MDA-MB-231: IC50 MCF10A / IC50 MDA-MB-231
Protocol: as §1, §2, §3

MDA-MB-453 = assay: MTT cell viability, MDA-MB-453; design: key to SI MDA-MB-453: NS: the compound was more active in the non-tumor cell line; conditions: for IC50: Homo sapiens, MDA-MB-453, 48 h, MTT; for SI MDA-MB-453: IC50 MCF10A / IC50 MDA-MB-453
Protocol: as §1, §2, §3

[1] = system: tumor cells MCF7, MDA-MB-453 and MDA-MB-231; assay: MTT cell viability, tumor cells (stated collectively); conditions: for IC50: 48 h, MTT, tumor cells stated collectively
Protocol: as §1, §2, §3

[2] = 1.25–160 μM, read-out: IC50 MCF-10A
[3] = 1.25–160 μM, read-out: IC50 MCF7
[4] = 1.25–160 μM, read-out: IC50 MDA-MB-231
[5] = 1.25–160 μM, read-out: IC50 MDA-MB-453
[6] = read-out: IC50 MCF-10A (Table S1)
[7] = read-out: IC50 MD-AMB 231 (Table S1)
[8] = read-out: IC50 MD-AMB 453 (Table S1)

IC50 [1] | SMILES | IC50 (MCF-10A; [2]) | IC50 (MCF7; [3]) | IC50 (MDA-MB-231; [4]) | IC50 (MDA-MB-453; [5]) | SI MDA-MB-453 (MDA-MB-453) | IC50 (MCF-10A; [6]) | IC50 (MCF7; read-out: IC50 MCF7 (Table S1)) | IC50 (MDA-MB-231; [7]) | IC50 (MDA-MB-453; [8]) | SI MCF7 (MCF7) | SI MDA-MB-231 (MDA-MB-231) | Selectivity for tumor cells over MCF-10A (in words) [1] | Cytotoxicity to the MCF-10A cell line (in words) (MCF-10A)
 | CN(C)Cc1ccc(N2CCN(S(=O)(=O)c3ccc(F)cc3)CC2)nc1 [Compound 11] | > 160 µM | 20 µM | > 160 µM | 109 µM | >1.47 |  |  |  |  |  |  |  | 
 | O=S(=O)(c1ccc(F)cc1)N1CCN(c2ccccc2)CC1 [Compound 19] |  |  |  |  |  | > 160 µM | > 160 µM | > 160 µM | > 160 µM |  |  |  | 
 | O=C(O)c1ccc(N2CCN(S(=O)(=O)c3ccc(Cl)cc3)CC2)nc1 [Compound 16] |  |  |  |  |  | > 160 µM | > 160 µM | > 160 µM | > 160 µM |  |  |  | 
< 50 µM | CN(C)CCOc1ccc(N2CCN(S(=O)(=O)c3ccc(Cl)cc3)CC2)cc1 [Compound 12] | 68.3 µM | 49.9 µM | > 160 µM | 136 µM | NS |  |  |  |  | 1.37 | NS | not selective | 
> 50 µM | CN(C)CCNc1ccc(C(=O)N2CCN(S(=O)(=O)c3ccc(Cl)cc3)CC2)cn1 [Compound 5] | > 160 µM | 82.9 µM | > 160 µM | > 160 µM |  |  |  |  |  | >1.93 |  |  | not cytotoxic
 | O=C(c1ccc(N2CCN(S(=O)(=O)c3ccc(Cl)cc3)CC2)nc1)N1CCCC1 [Compound 8] | 86 µM | 154 µM | 135 µM | 92.5 µM | NS |  |  |  |  | NS | NS |  | 
< 50 µM | CN(C)Cc1ccc(N2CCN(S(=O)(=O)c3ccc(Cl)cc3)CC2)nc1 [Compound 10] | 109 µM | 62 µM | > 160 µM | 48.4 µM | 2.25 |  |  |  |  | 1.75 | NS |  | 
> 50 µM | O=C(c1ccc(Cl)nc1)N1CCN(S(=O)(=O)c2ccc(Cl)cc2)CC1 [Compound 4] | > 160 µM | > 160 µM | 112 µM | > 160 µM |  |  |  |  |  |  | >1.42 |  | not cytotoxic
> 50 µM | CCOC(=O)c1ccc(N2CCN(S(=O)(=O)c3ccc(Cl)cc3)CC2)nc1 [Compound 6] | > 160 µM | > 160 µM | 53.1 µM | > 160 µM |  |  |  |  |  |  | >3.01 |  | not cytotoxic
> 50 µM | N#Cc1ccc(C(=O)N2CCN(S(=O)(=O)c3ccc(Cl)cc3)CC2)cc1 [Compound 1] | > 160 µM | > 160 µM | 84.9 µM | > 160 µM |  |  |  |  |  |  | >1.88 |  | not cytotoxic
 | O=S(=O)(c1ccc(Cl)cc1)N1CCN(c2ccc(O)cc2)CC1 [Compound 20] |  |  |  |  |  | > 160 µM | > 160 µM | > 160 µM | > 160 µM |  |  |  | 
 | CN(C)C(=O)c1ccc(N2CCN(S(=O)(=O)c3ccccc3)CC2)nc1 [Compound 15] |  |  |  |  |  | > 160 µM | > 160 µM | > 160 µM | > 160 µM |  |  |  | 
 | O=S(=O)(c1ccc(Cl)cc1)N1CCNCC1 [Compound 13] |  |  |  |  |  | > 160 µM | > 160 µM | > 160 µM | > 160 µM |  |  |  | 
 | CN(C)CCOc1ccc(C(=O)N2CCN(S(=O)(=O)c3ccc(Cl)cc3)CC2)cc1 [Compound 2] | 88.2 µM | > 160 µM | 61.3 µM | 50.5 µM | 1.75 |  |  |  |  | NS | 1.44 |  | 
 | CN1CCN(C(=O)c2ccc(N3CCN(S(=O)(=O)c4ccc(Cl)cc4)CC3)nc2)CC1 [Compound 18] |  |  |  |  |  | > 160 µM | > 160 µM | > 160 µM | > 160 µM |  |  |  | 
 | CN(C)C(=O)c1ccc(N2CCN(S(=O)(=O)c3ccc(Cl)cc3)CC2)nc1 [Compound 9] | 63.9 µM | > 160 µM | > 160 µM | > 160 µM | NS |  |  |  |  | NS | NS |  | 
 | O=S(=O)(c1ccc(Cl)cc1)N1CCN(c2ccc(CO)cn2)CC1 [Compound 7] | 91.2 µM | > 160 µM | 107 µM | > 160 µM | NS |  |  |  |  | NS | 0.85 |  | 
 | Cc1ccc(S(=O)(=O)N2CCN(c3ccc(C(=O)N(C)C)cn3)CC2)cc1 [Compound 14] |  |  |  |  |  | > 160 µM | > 160 µM | > 160 µM | > 160 µM |  |  |  | 
 | O=C(c1ccc(N2CCN(S(=O)(=O)c3ccc(Cl)cc3)CC2)nc1)N1CCOCC1 [Compound 17] |  |  |  |  |  | > 160 µM | > 160 µM | > 160 µM | > 160 µM |  |  |  | 
